Each block holds one molecule with its values, some of them ahead of it. Activity calls are given as the source filed them. No cut-off for these calls is given here.
Legend:
MCF7 [1] = assay: Synergistic cytotoxicity against human MCF7 cells measured after 6 days in presence of 5 uM KU60019 by SRB assay; type: functional, cell-based; details: MCF7, 144 h
MCF7 [2] = assay: Additive cytotoxicity against human MCF7 cells measured after 6 days in presence of 5 uM KU55933 by SRB assay; type: functional; details: time 6 day
MCF7 [3] = assay: Additive cytotoxicity against human MCF7 cells assessed as combination index measured after 6 days in presence of 5 uM KU55933 by SRB assay; type: functional; details: time 6 day
SW480 [4] = assay: Synergistic cytotoxicity against human SW480 cells assessed as combination index measured after 9 days in presence of 50 nM AZD0156 by SRB assay; type: functional; details: time 9 day
MCF7 [5] = assay: Antagonistic cytotoxicity against human MCF7 cells in presence of 30 uM 3-Chloro-4-methoxy-N-((4-(oxazolo[4,5-b]pyridin-2-yl)phenyl)carbamothioyl)benzamide measured after 6 days by SRB assay; type: functional, cell-based; details: MCF7, 144 h
MCF7 [6] = assay: Antagonistic cytotoxicity against human MCF7 cells assessed as combination index in presence of 30 uM 3-Chloro-4-methoxy-N-((4-(oxazolo[4,5-b]pyridin-2-yl)phenyl)carbamothioyl)benzamide measured after 6 days by SRB assay; type: functional; details: time 6 day
NCI-H1299 [7] = assay: Additive cytotoxicity against human NCI-H1299 cells measured in presence of 5 uM KU60019 after 2 days by SRB assay; type: functional, cell-based; details: NCI-H1299, 48 h
NCI-H1299 [8] = assay: Antagonistic cytotoxicity against human NCI-H1299 cells measured in presence of 50 nM AZD0156 after 2 days by SRB assay; type: functional, cell-based; details: NCI-H1299, 48 h
NCI-H1299 [9] = assay: Additive cytotoxicity against human NCI-H1299 cells assessed as combination index measured in presence of 5 uM KU60019 after 2 days by SRB assay; type: functional; details: time 2 day
NCI-H1299 [10] = assay: Antagonistic cytotoxicity against human NCI-H1299 cells assessed as combination index measured in presence of 50 nM AZD0156 after 2 days by SRB assay; type: functional; details: time 2 day
NCI-H1299 [11] = assay: Cytotoxicity against human NCI-H1299 cells measured in presence of 5 uM 2(((2-(2,4-dichlorobenzyl)oxy)naphthalen-1-yl)methyl)amino)ethan-1-ol after 6 days by SRB assay; type: functional, cell-based; details: NCI-H1299, 144 h
SW480 [12] = assay: Antitumor activity against human SW480 cells xenografted in BALB/c nude mouse assessed as reduction in tumor weight at 20 mg/kg, ip; type: functional, organism-based
SW480 [13] = assay: Antitumor activity against human SW480 cells xenografted in BALB/c nude mouse assessed as reduction in tumor weight at 20 mg/kg, ip in presence of 30 mg/kg, iv 2(((2-(2,4-dichlorobenzyl)oxy)naphthalen-1-yl)methyl)amino)ethan-1-ol; type: functional, organism-based
MCF7 [14] = assay: cells; details: Homo sapiens, MCF7, 144 h
SW480 [15] = assay: Antagonistic cytotoxicity against human SW480 cells measured after 3 days in presence of 50 nM AZD0156 by SRB assay; type: functional, cell-based; details: SW480, 72 h
MCF7 [16] = assay: Synergistic cytotoxicity against human MCF7 cells assessed as combination index measured after 6 days in presence of 5 uM KU55933 by SRB assay; type: functional; details: time 6 day
MCF7 [17] = assay: Additive cytotoxicity against human MCF7 cells assessed as combination index in presence of 10 uM 3-Chloro-4-methoxy-N-((4-(oxazolo[4,5-b]pyridin-2-yl)phenyl)carbamothioyl)benzamide measured after 6 days by SRB assay; type: functional; details: time 6 day
MCF7 [18] = assay: Induction of apoptosis in human MCF7 cells at 62 nM in presence of 1 to 5 uM KU60019 measured after 6 days by Annexin V-FITC/propidium iodide staining based flow cytometry analysis; type: functional, cell-based; details: time 6.0 day
MCF7 [19] = assay: Induction of apoptosis in human MCF7 cells at 62 nM in presence of 50 nM AZD0156 measured after 6 days by Annexin V-FITC/propidium iodide staining based flow cytometry analysis; type: functional, cell-based; details: time 6.0 day
MCF7 [20] = assay: Induction of cell cycle arrest in human MCF7 cells assessed as accumulation of cells at S-phase measured after 24 hrs by PI staining based flow cytometric analysis; type: functional; details: DDE = dose-dependent effect
MCF7 [21] = assay: Induction of cell cycle arrest in human MCF7 cells assessed as accumulation of cells at S-phase in presence of 5 uM KU60019 measured after 24 hrs by PI staining based flow cytometric analysis; type: functional
MCF7 [22] = assay: Induction of cell cycle arrest in human MCF7 cells assessed as decrease in accumulation of cells at G1-phase in presence of 5 uM KU60019 measured after 24 hrs by PI staining based flow cytometric analysis; type: functional
[23] = target: T1, Serine-protein kinase ATM (Homo sapiens, UniProt Q13315); assay: Inhibition of ATM (unknown origin) assessed as decrease in phosphorylation of ATM at 25 uM measured in presence of 1 to 5 uM KU60019 by Western blot analysis
[24] = target: T1, Serine-protein kinase ATM; assay: Inhibition of ATM (unknown origin) assessed as decrease in phosphorylation of ATM at 25 uM measured in presence of 50 nM AZD0156 by Western blot analysis
[25] = target: T1, Serine-protein kinase ATM; assay: Inhibition of ATM (unknown origin) assessed as decrease in phosphorylation of KAP1 at 25 uM measured in presence of 1 to 5 uM KU60019 by Western blot analysis
[26] = target: T1, Serine-protein kinase ATM; assay: Inhibition of ATM (unknown origin) assessed as decrease in phosphorylation of KAP1 at 25 uM measured in presence of 50 nM AZD0156 by Western blot analysis
[27] = target: T1, Serine-protein kinase ATM; assay: Inhibition of ATM (unknown origin) assessed as decrease in phosphorylation of p21 at 25 uM measured in presence of 1 uM KU60019 by Western blot analysis
[28] = target: T1, Serine-protein kinase ATM; assay: Inhibition of ATM (unknown origin) assessed as decrease in phosphorylation of p21 at 25 uM measured in presence of 5 uM KU60019 by Western blot analysis
[29] = target: T1, Serine-protein kinase ATM; assay: Inhibition of ATM (unknown origin) assessed as decrease in phosphorylation of p21 at 25 uM measured in presence of 50 nM AZD0156 by Western blot analysis
NCI-H1299 [30] = assay: Synergistic cytotoxicity against human NCI-H1299 cells measured in presence of 5 uM KU60019 after 2 days by SRB assay; type: functional, cell-based; details: NCI-H1299, 48 h
NCI-H1299 [31] = assay: Synergistic cytotoxicity against human NCI-H1299 cells measured in presence of 50 nM AZD0156 after 2 days by SRB assay; type: functional, cell-based; details: NCI-H1299, 48 h
NCI-H1299 [32] = assay: Synergistic cytotoxicity against human NCI-H1299 cells assessed as combination index measured in presence of 5 uM KU60019 after 2 days by SRB assay; type: functional; details: time 2 day
NCI-H1299 [33] = assay: Synergistic cytotoxicity against human NCI-H1299 cells assessed as combination index measured in presence of 50 nM AZD0156 after 2 days by SRB assay; type: functional; details: time 2 day
MCF7 [34] = assay: cells; details: Homo sapiens, MCF7, 144 h; remark: listed apart in the source
MCF7 [35] = assay: cells; details: Homo sapiens, MCF7, 144 h; remark: listed apart in the source

T1 sequence (Q13315 whole entry): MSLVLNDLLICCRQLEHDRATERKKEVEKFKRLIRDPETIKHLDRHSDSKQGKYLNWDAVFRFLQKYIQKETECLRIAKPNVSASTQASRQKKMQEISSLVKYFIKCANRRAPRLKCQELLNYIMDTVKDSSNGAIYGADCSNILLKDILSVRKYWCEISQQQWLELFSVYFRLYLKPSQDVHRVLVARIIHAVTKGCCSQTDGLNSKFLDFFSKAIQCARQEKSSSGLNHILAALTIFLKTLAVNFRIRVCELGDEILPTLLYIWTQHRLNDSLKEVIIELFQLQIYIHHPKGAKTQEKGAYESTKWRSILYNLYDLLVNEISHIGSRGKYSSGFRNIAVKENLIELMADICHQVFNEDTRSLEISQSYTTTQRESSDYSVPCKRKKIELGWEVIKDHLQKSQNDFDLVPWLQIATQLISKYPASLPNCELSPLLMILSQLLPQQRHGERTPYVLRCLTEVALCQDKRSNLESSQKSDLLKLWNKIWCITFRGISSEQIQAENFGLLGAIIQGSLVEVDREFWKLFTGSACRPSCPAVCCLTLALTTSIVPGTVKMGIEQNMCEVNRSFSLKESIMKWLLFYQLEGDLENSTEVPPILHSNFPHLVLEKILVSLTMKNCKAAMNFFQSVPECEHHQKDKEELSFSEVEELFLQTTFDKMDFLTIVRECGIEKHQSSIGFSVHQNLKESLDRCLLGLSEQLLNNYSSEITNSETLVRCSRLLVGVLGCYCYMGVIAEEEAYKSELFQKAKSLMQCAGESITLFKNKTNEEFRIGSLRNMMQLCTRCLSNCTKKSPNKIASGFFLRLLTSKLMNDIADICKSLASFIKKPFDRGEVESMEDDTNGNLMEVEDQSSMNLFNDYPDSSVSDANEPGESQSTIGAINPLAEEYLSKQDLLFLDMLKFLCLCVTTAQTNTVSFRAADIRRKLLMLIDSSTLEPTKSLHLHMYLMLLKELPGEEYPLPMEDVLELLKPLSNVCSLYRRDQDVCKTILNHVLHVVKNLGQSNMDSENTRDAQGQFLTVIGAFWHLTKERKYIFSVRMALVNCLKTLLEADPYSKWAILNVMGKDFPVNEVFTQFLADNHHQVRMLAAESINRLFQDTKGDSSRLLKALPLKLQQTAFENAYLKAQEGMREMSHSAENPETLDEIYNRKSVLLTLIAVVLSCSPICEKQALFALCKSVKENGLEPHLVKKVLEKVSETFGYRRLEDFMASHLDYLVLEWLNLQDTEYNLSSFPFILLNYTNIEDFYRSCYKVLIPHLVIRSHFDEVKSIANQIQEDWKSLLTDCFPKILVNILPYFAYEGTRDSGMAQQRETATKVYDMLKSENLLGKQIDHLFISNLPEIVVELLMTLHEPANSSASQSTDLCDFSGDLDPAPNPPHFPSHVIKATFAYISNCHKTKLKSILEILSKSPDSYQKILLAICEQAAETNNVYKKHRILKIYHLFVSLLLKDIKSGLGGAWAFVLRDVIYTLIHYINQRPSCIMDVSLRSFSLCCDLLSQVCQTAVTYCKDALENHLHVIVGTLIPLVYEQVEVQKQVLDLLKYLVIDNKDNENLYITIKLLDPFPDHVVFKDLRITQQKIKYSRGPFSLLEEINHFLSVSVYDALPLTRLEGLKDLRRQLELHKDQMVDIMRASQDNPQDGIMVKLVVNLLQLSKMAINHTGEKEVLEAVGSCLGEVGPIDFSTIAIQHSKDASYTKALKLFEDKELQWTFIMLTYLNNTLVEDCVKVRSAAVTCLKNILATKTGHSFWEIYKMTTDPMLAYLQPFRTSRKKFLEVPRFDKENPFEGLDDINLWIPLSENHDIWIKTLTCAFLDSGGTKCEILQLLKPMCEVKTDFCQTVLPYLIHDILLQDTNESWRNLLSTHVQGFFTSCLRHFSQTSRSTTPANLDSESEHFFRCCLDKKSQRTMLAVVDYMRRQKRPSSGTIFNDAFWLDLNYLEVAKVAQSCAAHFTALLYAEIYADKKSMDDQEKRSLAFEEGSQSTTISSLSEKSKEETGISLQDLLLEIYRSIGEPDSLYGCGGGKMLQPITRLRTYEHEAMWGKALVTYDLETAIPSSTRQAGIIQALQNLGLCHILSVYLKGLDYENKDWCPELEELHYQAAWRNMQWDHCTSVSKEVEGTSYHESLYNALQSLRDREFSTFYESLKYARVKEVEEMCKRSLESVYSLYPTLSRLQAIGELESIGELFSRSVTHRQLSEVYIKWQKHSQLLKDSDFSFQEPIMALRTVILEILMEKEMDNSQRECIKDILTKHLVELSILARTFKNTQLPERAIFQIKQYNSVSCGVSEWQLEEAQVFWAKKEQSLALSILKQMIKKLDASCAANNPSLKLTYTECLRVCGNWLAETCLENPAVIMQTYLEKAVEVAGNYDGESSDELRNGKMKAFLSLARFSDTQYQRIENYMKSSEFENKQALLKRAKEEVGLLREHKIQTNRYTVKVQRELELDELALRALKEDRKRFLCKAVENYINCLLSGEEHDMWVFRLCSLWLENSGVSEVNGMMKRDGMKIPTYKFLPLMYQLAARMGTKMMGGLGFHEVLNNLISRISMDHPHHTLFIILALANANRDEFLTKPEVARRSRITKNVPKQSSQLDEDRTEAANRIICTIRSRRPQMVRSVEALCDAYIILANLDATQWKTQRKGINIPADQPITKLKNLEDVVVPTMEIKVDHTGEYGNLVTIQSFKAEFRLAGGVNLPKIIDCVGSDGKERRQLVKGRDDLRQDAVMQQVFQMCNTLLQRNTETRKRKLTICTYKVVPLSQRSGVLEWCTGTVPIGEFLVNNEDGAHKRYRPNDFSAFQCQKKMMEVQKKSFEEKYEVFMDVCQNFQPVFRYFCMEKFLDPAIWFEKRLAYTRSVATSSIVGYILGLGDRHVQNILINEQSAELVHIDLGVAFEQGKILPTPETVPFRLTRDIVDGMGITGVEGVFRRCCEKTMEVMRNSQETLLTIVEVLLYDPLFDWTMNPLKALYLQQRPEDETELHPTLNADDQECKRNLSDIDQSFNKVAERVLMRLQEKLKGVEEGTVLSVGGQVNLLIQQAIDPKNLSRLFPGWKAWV

IC50 (MCF7 [14]): 0.21 µM
Compound: CCc1c2c(nc3ccc(OC(=O)N4CCC(N5CCCCC5)CC4)cc13)-c1cc3c(c(=O)n1C2)COC(=O)[C@]3(O)CC [IRINOTECAN]
IC50 (MCF7 [1]): 1.98 µM
CI (MCF7 [2]): 0.16
CI (MCF7 [3]): 0.18
CI (SW480 [4]): 0.22
IC50 (MCF7 [5]): 2.42 µM
CI (MCF7 [6]): 1.49
IC50 (NCI-H1299 [7]): 9.83 µM
IC50 (NCI-H1299 [8]): 15.2 µM
CI (NCI-H1299 [9]): 1.04
CI (NCI-H1299 [10]): 1.13
IC50 (NCI-H1299 [11]): 1.83 µM
Activity (SW480 [12]): Active
Activity (SW480 [13]): Active

inhibition [23]: Active
inhibition [24]: Active
inhibition [25]: Active
inhibition [26]: Active
inhibition [27]: 25%
inhibition [28]: 53%
inhibition [29]: 41%
IC50 (MCF7 [34]): 0.59 µM
IC50 (MCF7 [35]): 0.56 µM
Compound: COc1cc([C@@H]2c3cc4c(cc3[C@@H](O[C@@H]3O[C@@H]5CO[C@@H](C)O[C@H]5[C@H](O)[C@H]3O)[C@H]3COC(=O)[C@H]23)OCO4)cc(OC)c1O [ETOPOSIDE]
IC50 (SW480 [15]): 3.6 µM
IC50 (MCF7 [1]): 0.06 µM
CI (MCF7 [16]): 0.73
CI (SW480 [4]): 0.17
CI (MCF7 [17]): 1.01
Activity (MCF7 [18]): Active
Activity (MCF7 [19]): Active
Activity (MCF7 [20]): Dde
Activity (MCF7 [21]): Active
Activity (MCF7 [22]): Active
IC50 (NCI-H1299 [30]): 5.75 µM
IC50 (NCI-H1299 [31]): 8.86 µM
CI (NCI-H1299 [32]): 0.84
CI (NCI-H1299 [33]): 0.82
IC50 (NCI-H1299 [11]): 0.71 µM

From ChEMBL document CHEMBL5154770, “Discovery of novel ataxia telangiectasia mutated (ATM) kinase modulators: Computational simulation, biological evaluation and cancer combinational chemotherapy study” (Eur J Med Chem, 2022)
